Measurements reported in US11679107B2 (Eisai R&D Management Co., Ltd., priority 2018, dated 2023).
Where two headings read alike, the source gives them in different places.

Assays:
[1] = tested on: NCI-H1568 cells (high MCL1); experiment: Cell proliferation and viability, CellTiter-Glo, 72 hours; format: cell-based; conditions: for GI50: geometric mean
Procedure, shortened: (§1)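 Cells grown in RPMI-1640 with 10% FBS (Panc line with added insulin and FBS to 15%) were exposed to an 11-point half-log dilution series, typically 10 μM-100 pM, at 0.1% final DMSO. After incubation at 37° C, 5% CO2, ATP content was measured by luminescence and normalized to a time-zero plate and DMSO wells.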

[2] = tested on: Panc 05.04 cells (SF3b K700E mutant); experiment: as above; format: cell-based; conditions: for GI50: geometric mean
Procedure, shortened: as §1

[3] = target: T1, SF3b complexes (Homo sapiens, UniProt O75533+Q7RTV0); experiment: Scintillation proximity assay (SPA) with [3H]-labelled pladienolide probe; format: binding; conditions: SF3B1 (WT); geometric mean; read-out: SPA-ATS GMean IC50 (nM) SF3B1 (WT)
T1 construct: endogenous in cells; host or cells: Nuclear extracts; A HeLa S3 extract preparation is described for the in vitro splicing assay
Procedure, shortened: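 SF3b complexes captured from nuclear extracts on anti-SF3B1 antibody SPA beads; test compounds pre-incubated 30 min before 2.5 nM [3H]-pladienolide probe added, then 30 min incubation. Bound probe read by scintillation; values from non-linear regression of concentration–response curves.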

[4] = tested on: Ad2 variant pre-mRNAs spliced in HeLa S3 nuclear extracts; experiment: In vitro splicing assay (IVS), RT-qPCR of spliced product; format: biochemical; conditions: for IC50: geometric mean; for Ratio Ad2.1/2.2: ratio of IVS IC50 Ad2.1 to Ad2.2
Procedure, shortened: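 Ad2 variant pre-mRNA (2 ng) with FTZΔi control RNA in HeLa S3 nuclear extract (8 μg) was pre-incubated with compound or DMSO for 15 min at 30 °C. Splicing ran 90 min at 30 °C after adding 0.5 mM ATP, creatine phosphate and MgCl2. Spliced product was quantified by TaqMan RT-qPCR, normalized to DMSO, and curve-fitted.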

[5] = NCI-H1568, read-out: CTGlo-ATS GMean GI50 (nM) 72 h NCIH1568.1, NCIH1568.1 cells, 72 h
[6] = NCIH1568.1 cells, 72 h, −100% cidal, 0% static, 100% maximal growth
[7] = PANC0504.1 cells, 72 h, −100% cidal, 0% static, 100% maximal growth
[8] = Panc 05.04, read-out: CTGlo-ATS GMean GI50 (nM) 72 h PANC0504.1, PANC0504.1 cells, 72 h
[9] = Ad2.1 pre-mRNA substrate, read-out: qPCR-IVS-ATS GMean IC50 (nM) Ad2.1
[10] = Ad2.2 pre-mRNA substrate, read-out: qPCR-IVS-ATS GMean IC50 (nM) Ad2.2
[11] = NCI-H1568, 72 h, read-out: CTGlo-ATS GMean GI50 (nM) 72 h NCIH1568.1, NCIH1568.1 cells, 72 h
[12] = Panc 05.04, 72 h, read-out: CTGlo-ATS GMean GI50 (nM) 72 h PANC0504.1, PANC0504.1 cells, 72 h
[13] = 72 h, NCIH1568.1, -100% = cidal, 0% = static, 100% = uninhibited growth
[14] = 72 h, PANC0504.1, -100% = cidal, 0% = static, 100% = uninhibited growth

C/C(=C\c1cc(F)c2cn(CC3CC3)nc2c1)[C@H]1OC(=O)C[C@H](O)CC[C@H](C)[C@@H](OC(=O)N2CCN(C)CC2)/C=C/[C@@H]1C [Compound 99]
GI50 [1, 5]: 93.2 nM
CTGlo-ATS Mean MinResponse % 72 h NCIH1568.1 [1, 6]: −73.818%
CTGlo-ATS Mean MinResponse % 72 h PANC0504.1 [2, 7]: −69.788%
GI50 [2, 8]: 78 nM
IC50 [3]: 4.14 nM
IC50 [4, 9]: > 25000 nM
IC50 [4, 10]: 156 nM

C/C(=C\c1cc(F)cc(N(C)C2COC2)c1)[C@H]1OC(=O)C[C@H](O)CC[C@H](C)[C@@H](OC(=O)N2CCN(C)CC2)/C=C/[C@@H]1C [Compound 169]
GI50 [1, 5]: 8.26 nM
CTGlo-ATS Mean MinResponse % 72 h NCIH1568.1 [1, 6]: −66.086%
CTGlo-ATS Mean MinResponse % 72 h PANC0504.1 [2, 7]: −90.232%
GI50 [2, 8]: 8.9 nM
IC50 [3]: 1.43 nM
IC50 [4, 9]: 96.6 nM
IC50 [4, 10]: 19.8 nM

C/C(=C\c1cc(F)c2cn(C3CCOCC3)nc2c1)[C@H]1OC(=O)C[C@H](O)CC[C@H](C)[C@@H](OC(=O)N2CCN(C)CC2)/C=C/[C@@H]1C [Compound 117]
GI50 [1, 5]: 79.8 nM
CTGlo-ATS Mean MinResponse % 72 h NCIH1568.1 [1, 6]: −55.709%
CTGlo-ATS Mean MinResponse % 72 h PANC0504.1 [2, 7]: −95.049%
GI50 [2, 8]: 50.2 nM
IC50 [3]: 9.76 nM
IC50 [4, 9]: > 25000 nM
IC50 [4, 10]: 69.6 nM

C/C(=C\c1cc(F)cc(N2CCOC[C@H]2C)c1)[C@H]1OC(=O)C[C@H](O)CC[C@H](C)[C@@H](OC(=O)N2CCN(C)CC2)/C=C/[C@@H]1C [Compound 75]
GI50 [1, 5]: 3.58 nM
CTGlo-ATS Mean MinResponse % 72 h NCIH1568.1 [1, 6]: −85.064%
CTGlo-ATS Mean MinResponse % 72 h PANC0504.1 [2, 7]: −81.995%
GI50 [2, 8]: 3.69 nM
IC50 [3]: 2.15 nM
IC50 [4, 9]: 19 nM
IC50 [4, 10]: 15.4 nM

C/C(=C\c1cc(F)cc(N2CCC3(COC3)C2)c1)[C@H]1OC(=O)C[C@H](O)CC[C@H](C)[C@@H](OC(=O)N2CCN(C)CC2)/C=C/[C@@H]1C [Compound 33]
GI50 [1, 5]: 12 nM
CTGlo-ATS Mean MinResponse % 72 h NCIH1568.1 [1, 6]: −73.122%
CTGlo-ATS Mean MinResponse % 72 h PANC0504.1 [2, 7]: −77.334%
GI50 [2, 8]: 10 nM
IC50 [3]: 5.58 nM
IC50 [4, 9]: 28.4 nM
IC50 [4, 10]: 27.6 nM

C/C(=C\c1cc(F)cc(N2CCS(=O)(=O)CC2)c1)[C@H]1OC(=O)C[C@H](O)CC[C@H](C)[C@@H](OC(=O)N(C)C)/C=C/[C@@H]1C [Compound 51]
GI50 [1, 5]: 112 nM
CTGlo-ATS Mean MinResponse % 72 h NCIH1568.1 [1, 6]: −31.962%
CTGlo-ATS Mean MinResponse % 72 h PANC0504.1 [2, 7]: −78.388%
GI50 [2, 8]: 80.9 nM
IC50 [3]: 19.7 nM
IC50 [4, 9]: > 25000 nM
IC50 [4, 10]: 88.1 nM

C/C(=C\c1cc(F)cc(N2CCNC2=O)c1)[C@H]1OC(=O)C[C@H](O)CC[C@H](C)[C@@H](OC(=O)N2CCN(C)CC2)/C=C/[C@@H]1C [Compound 64]
GI50 [1, 5]: 6.5 nM
CTGlo-ATS Mean MinResponse % 72 h NCIH1568.1 [1, 6]: −66.274%
CTGlo-ATS Mean MinResponse % 72 h PANC0504.1 [2, 7]: −92.050%
GI50 [2, 8]: 7.96 nM
IC50 [3]: 3.08 nM
IC50 [4, 9]: 116 nM
IC50 [4, 10]: 24.4 nM

C/C(=C\c1ccc2c(C)nn(C)c2c1)[C@H]1OC(=O)C[C@H](O)CC[C@H](C)[C@@H](OC(=O)N2CCN(C)CC2)/C=C/[C@@H]1C [Compound 50]
GI50 [1, 5]: 43.6 nM
CTGlo-ATS Mean MinResponse % 72 h NCIH1568.1 [1, 6]: −65.255%
CTGlo-ATS Mean MinResponse % 72 h PANC0504.1 [2, 7]: −82.642%
GI50 [2, 8]: 28.3 nM
IC50 [3]: 1.46 nM
IC50 [4, 9]: 17900 nM
IC50 [4, 10]: 60.2 nM

C/C(=C\c1cccc(N2CCNCC2)c1)[C@H]1OC(=O)C[C@H](O)CC[C@H](C)[C@@H](OC(=O)N2CCN(C)CC2)/C=C/[C@@H]1C [Compound 1]
GI50 [1, 5]: 61.2 nM
CTGlo-ATS Mean MinResponse % 72 h NCIH1568.1 [1, 6]: −71.582%
CTGlo-ATS Mean MinResponse % 72 h PANC0504.1 [2, 7]: −79.550%
GI50 [2, 8]: 54.8 nM
IC50 [3]: 19.8 nM
IC50 [4, 9]: 28.9 nM
IC50 [4, 10]: 18.7 nM

C/C(=C\c1cc(F)cc(N2CCC[C@@H]2C)c1)[C@H]1OC(=O)C[C@H](O)CC[C@H](C)[C@@H](OC(=O)N2CCN(C)CC2)/C=C/[C@@H]1C [Compound 43]
GI50 [1, 11]: 89.1 nM
CTGlo-ATS Mean MinResponse % 72 h NCIH1568.1 [1, 6]: −36.254%
CTGlo-ATS Mean MinResponse % 72 h PANC0504.1 [2, 7]: −88.777%
GI50 [2, 12]: 57.5 nM
IC50 [3]: 12 nM
IC50 [4, 9]: > 25000 nM
IC50 [4, 10]: 139 nM

[2H]C([2H])([2H])N1CCN(C(=O)O[C@H]2/C=C/C(C)C(/C(C)=C/c3cc(F)cc(N4CCOCC4)c3)OC(=O)CC(O)CC[C@@H]2C)CC1 (stereo in doubt) [Compound 220, [(2R,3R,4E,6R,7S,10S)-2-[(E)-1-(3-fluoro-5-morpholin-4-ylphenyl)prop-1-en-2-yl]-10-hydroxy-3,7-dimethyl-12-oxo-1-oxacyclododec-4-en-6-yl] 4-(trideuteriomethyl)piperazine-1-carboxylate]
CTGlo-ATS Mean MinResponse % 72 h NCIH1568.1 [1, 13]: −76.936%
GI50 ([1]; NCI-H1568, 72 h, read-out: CTGlo-ATS GMean GI50 (nM) 72 h NCIH1568.1, 72 h, NCIH1568.1): 2.01 nM
CTGlo-ATS Mean MinResponse % 72 h PANC0504.1 [2, 14]: −90.506%
GI50 ([2]; Panc 05.04, 72 h, read-out: CTGlo-ATS GMean GI50 (nM) 72 h PANC0504.1, 72 h, PANC0504.1): 4.36 nM
IC50 [3]: 3.17 nM
IC50 [4, 9]: 19.3 nM
IC50 [4, 10]: 14.4 nM
Ratio Ad2.1/2.2 [4]: 1.344

C/C(=C\c1cncc(S(=O)(=O)N2CCCC2)c1)[C@H]1OC(=O)C[C@H](O)CC[C@H](C)[C@@H](OC(=O)N2CCN(C)CC2)/C=C/[C@@H]1C [Compound 205, [(2S,3S,4E,6R,7S,10R)-10-hydroxy-3,7-dimethyl-12-oxo-2-[(E)-1-(5-pyrrolidin-1-ylsulfonylpyridin-3-yl)prop-1-en-2-yl]-1-oxacyclododec-4-en-6-yl] 4-methylpiperazine-1-carboxylate]
CTGlo-ATS Mean MinResponse % 72 h NCIH1568.1 [1, 13]: −28.455%
GI50 ([1]; NCI-H1568, read-out: CTGlo-ATS GMean GI50 (nM) 72 h NCIH1568.1, 72 h, NCIH1568.1): 85.9 nM
CTGlo-ATS Mean MinResponse % 72 h PANC0504.1 [2, 14]: −91.576%
GI50 ([2]; Panc 05.04, read-out: CTGlo-ATS GMean GI50 (nM) 72 h PANC0504.1, 72 h, PANC0504.1): 70.8 nM
IC50 [3]: 16.2 nM
IC50 [4, 9]: > 25000 nM
IC50 [4, 10]: 108 nM
Ratio Ad2.1/2.2 [4]: 232.132

C/C(=C\c1cc(F)cc(N2CCN(C(=O)C3CCOC3)CC2)c1)[C@H]1OC(=O)C[C@H](O)CC[C@H](C)[C@@H](OC(=O)N2CCN(C)CC2)/C=C/[C@@H]1C (stereo partly drawn) [Compound 143]
GI50 [1, 11]: 1.75 nM
CTGlo-ATS Mean MinResponse % 72 h NCIH1568.1 [1, 6]: −84.803%
CTGlo-ATS Mean MinResponse % 72 h PANC0504.1 [2, 7]: −87.719%
GI50 [2, 12]: 3.67 nM
IC50 [3]: 3.2 nM
IC50 [4, 9]: 19.2 nM
IC50 [4, 10]: 17.2 nM
